{"source": "patent US5053006A", "about": "“Method for the permanent occlusion of arteries” (priority 1990, dated 1991)", "key": {"corneal neovasculature": {"tested_on": "corneal neovasculature", "format": "in vivo, New Zealand albino rabbit", "source_text": "The corneal and limbal epithelia, along with the conjunctival epithelium 2-3 mm beyond the limbus, were removed from New Zealand albino rabbits by a combination of surgical scraping and n-heptanol debridement. The denuded corneal surfaces were then healed by the remaining conjunctival epithelium, of which 65% contained extensive neovascularization. From this group, 16 corneas with neovascularization persistent for about 20 months were subjected to photothrombotic treatment.\nIsotonic saline solution was used as a control solution.\nAfter anesthesia with intramuscular injection of xylazine (10 mg/kg bw) and ketamine (10 mg/kg bw), the rabbits were injected intravenously with either 2.5 ml of isotonic saline solution or rose bengal saline solution at a dosage of 40 mg/kg bw. Irradiation of corneal vessels was carried out with an argon ion laser (Model 95, Cooper LaserSonics, Fremont, Calif.) operated at 514.5 nm, as described by Mendelsohn et al. (Arch. Opthalmol., 105:983-988, 1987). The beam focusing apparatus was mounted in an X-Y positioning device attached to a rotary turntable, both with micrometer precision (Daedal, Inc., Harrison City, Pa.). With this apparatus, beam positioning stability and reproducibility of incident intensity were improved because irradiations were administered during the open cycle of the mechanical shutter. The incident power level was set at 200 mW; allowing for reflection losses in the fiber optic focusing system, the incident power was reduced to 130 mW. At the focal point, the laser beam was 63 μm in diameter. Each irradiation was 0.2 second in pulse duration. During the entire procedure, the corneas were continuously rinsed with a balanced salt solution delivered through a peristatic pump and the temperature of the solution was maintained at 37° C. with a water bath. After laser irradiation, topical antibiotics and steroids were applied for two days.\nRoutine external photography and corneal fluorescein angiography were performed to document occlusion of the corneal blood vessels and the duration of their occlusion. Angiograms were taken with a ceiling-mounted Zeiss surgical photoscope after injection of 1 ml of 10 mg/ml fluorescein solution. Baseline angiography was performed two or three days before laser irradiation to avoid possible photosensitizing effects from the fluorescein dye used for angiography. After photothrombotic treatment, angiograms were taken on scheduled dates in order to monitor the duration of the occlusive effect. Late phase (5 minutes after injection) fluorescein angiograms were used for comparison.\nVarious dosages of rose bengal solution were used to investigate the efficacy of photothrombosis."}, "[1]": {"details": "common carotid and femoral arteries"}}, "note": "Where two headings read alike, the source gives them in different places.", "data": [{"compound": "O=C([O-])c1c(Cl)c(Cl)c(Cl)c(Cl)c1-c1c2cc(I)c(=O)c(I)c-2oc2c(I)c([O-])c(I)cc12.[Na+].[Na+]", "note": "[rose bengal]", "values": [{"measurement": "time to occlusion", "setting": "arteries; 35 kJ/sq cm large arteries, 3.5 kJ/sq cm small arteries", "value": "≤ 3", "unit": "min"}, {"measurement": "distal extension of mixture of red blood cells and coagulum", "setting": "arteries; [1]", "value": "at least 10 arterial diameters"}, {"measurement": "thrombus composition", "setting": "arteries; [1]", "value": "thrombus of mixed character"}, {"measurement": "photochemically induced thrombotic occlusion", "setting": "arteries; irradiated arteries of rats injected with rose bengal solution", "value": "always observed"}, {"measurement": "Total Laser Shots to Occlude each Vessel", "setting": "corneal neovasculature; 4 mg/kg BW i.v., duration 0-10 min, means ± s.d.", "value": "33 ± 8"}, {"measurement": "Total Laser Shots to Occlude each Vessel", "setting": "corneal neovasculature; 4 mg/kg BW i.v., duration 10-20 min, means ± s.d.", "value": "53 ± 8"}, {"measurement": "Total Laser Shots to Occlude each Vessel", "setting": "corneal neovasculature; 4 mg/kg BW i.v., duration 20-30 min, means ± s.d.", "value": "81 ± 11"}, {"measurement": "Total Laser Shots to Occlude each Vessel", "setting": "corneal neovasculature; 4 mg/kg BW i.v., duration 30-40 min", "value": "> 100"}, {"measurement": "Total Laser Shots to Occlude each Vessel", "setting": "corneal neovasculature; 4 mg/kg BW i.v., duration 40-50 min", "value": "N.O."}, {"measurement": "Total Laser Shots to Occlude each Vessel", "setting": "corneal neovasculature; 4 mg/kg BW i.v., duration 50-60 min", "value": "N.O."}, {"measurement": "shots required to occlude blood vessels", "setting": "corneal neovasculature; 4 mg/kg bw", "value": "more than 100 shots"}, {"measurement": "time window in which vessels could still be occluded", "setting": "corneal neovasculature; 4 mg/kg bw, sufficient shots", "value": "≤ 30", "unit": "min"}, {"measurement": "Total Laser Shots to Occlude each Vessel", "setting": "corneal neovasculature; 8 mg/kg BW i.v., duration 0-10 min, means ± s.d.", "value": "13 ± 4"}, {"measurement": "Total Laser Shots to Occlude each Vessel", "setting": "corneal neovasculature; 8 mg/kg BW i.v., duration 10-20 min, means ± s.d.", "value": "19 ± 1"}, {"measurement": "Total Laser Shots to Occlude each Vessel", "setting": "corneal neovasculature; 8 mg/kg BW i.v., duration 20-30 min, means ± s.d.", "value": "30 ± 4"}, {"measurement": "Total Laser Shots to Occlude each Vessel", "setting": "corneal neovasculature; 8 mg/kg BW i.v., duration 30-40 min, means ± s.d.", "value": "51 ± 7"}, {"measurement": "Total Laser Shots to Occlude each Vessel", "setting": "corneal neovasculature; 8 mg/kg BW i.v., duration 40-50 min, means ± s.d.", "value": "65 ± 6"}, {"measurement": "Total Laser Shots to Occlude each Vessel", "setting": "corneal neovasculature; 8 mg/kg BW i.v., duration 50-60 min, means ± s.d.", "value": "85 ± 10"}, {"measurement": "shots per target vessel required for occlusion", "setting": "corneal neovasculature; 8 mg/kg bw or higher", "value": "< 20", "unit": "shots"}, {"measurement": "Total Laser Shots to Occlude each Vessel", "setting": "corneal neovasculature; 16 mg/kg BW i.v., duration 0-10 min, means ± s.d.", "value": "8 ± 3"}, {"measurement": "Total Laser Shots to Occlude each Vessel", "setting": "corneal neovasculature; 16 mg/kg BW i.v., duration 10-20 min, means ± s.d.", "value": "9 ± 2"}, {"measurement": "Total Laser Shots to Occlude each Vessel", "setting": "corneal neovasculature; 16 mg/kg BW i.v., duration 20-30 min, means ± s.d.", "value": "10 ± 2"}, {"measurement": "Total Laser Shots to Occlude each Vessel", "setting": "corneal neovasculature; 16 mg/kg BW i.v., duration 30-40 min, means ± s.d.", "value": "13 ± 3"}, {"measurement": "Total Laser Shots to Occlude each Vessel", "setting": "corneal neovasculature; 16 mg/kg BW i.v., duration 40-50 min, means ± s.d.", "value": "20 ± 4"}, {"measurement": "Total Laser Shots to Occlude each Vessel", "setting": "corneal neovasculature; 16 mg/kg BW i.v., duration 50-60 min, means ± s.d.", "value": "32 ± 5"}, {"measurement": "Total Laser Shots to Occlude each Vessel", "setting": "corneal neovasculature; 40 mg/kg BW i.v., duration 0-10 min, means ± s.d.", "value": "5 ± 1"}, {"measurement": "Total Laser Shots to Occlude each Vessel", "setting": "corneal neovasculature; 40 mg/kg BW i.v., duration 10-20 min, means ± s.d.", "value": "5 ± 1"}, {"measurement": "Total Laser Shots to Occlude each Vessel", "setting": "corneal neovasculature; 40 mg/kg BW i.v., duration 20-30 min, means ± s.d.", "value": "6 ± 1"}, {"measurement": "Total Laser Shots to Occlude each Vessel", "setting": "corneal neovasculature; 40 mg/kg BW i.v., duration 30-40 min, means ± s.d.", "value": "8 ± 2"}, {"measurement": "Total Laser Shots to Occlude each Vessel", "setting": "corneal neovasculature; 40 mg/kg BW i.v., duration 40-50 min, means ± s.d.", "value": "10 ± 3"}, {"measurement": "Total Laser Shots to Occlude each Vessel", "setting": "corneal neovasculature; 40 mg/kg BW i.v., duration 50-60 min, means ± s.d.", "value": "15 ± 4"}, {"measurement": "corneal fluorescein angiography", "setting": "corneal neovasculature; after photothrombosis", "value": "completely occluded without any dye leakage"}, {"measurement": "recanalization / new vessel formation", "setting": "corneal neovasculature; four-month study period", "value": "without recanalization or stimulation of new vessel formation elsewhere"}, {"measurement": "involution of occluded corneal vessels", "setting": "corneal neovasculature; one week after irradiation", "value": "gradually involuted"}, {"measurement": "conjunctival side effect", "setting": "corneal neovasculature; rabbit, in vivo, 40 mg/kg", "value": "edematous and slightly pinkish in color"}]}]}
